Reference: patent publication US20110212053A1, “PHOSPHATIDYLINOSITOL 3 KINASE INHIBITORS” (priority 2008, published 2011)

Experiments:
Type in all cases: biochemical
PI3Kβ = target: T1, PI3Kβ (Homo sapiens, UniProt P42338); experiment: KinaseGLO luminescent PI3-kinase assay, PI3Kβ
T1 construct: purchased Invitrogen or Millipore
Method: (§1) Compound Preparation: KinaseGLO assay: 30× stocks of inhibitors were prepared in DMSO. A 10 mM master stock was prepared and all other stocks were generated by serial dilution of this master stock in DMSO. The final concentration of DMSO in the kinase reaction was 3.3% (v/v).
(§2) PI3-Kinase Assay: The KinaseGLO® Luminescent Kinase Assay (Promega) is a luciferin-luciferase based luminescent assay that utilizes a proprietary thermostable luciferase to quantify the ATP remaining in a solution after a kinase reaction. The luminescent signal generated using KinaseGLO® directly correlates with ATP concentration, and therefore inversely correlates with kinase activity.
PI3K enzyme sample was thawed and diluted to 100 ng/μL in enzyme dilution buffer (50 mM HEPES, pH7.5, 3.0 mM MgCl2, 1.0 mM EGTA) and stored on ice. PI3Kα enzyme was diluted to a final concentration of 1 ng/μL in reaction buffer (for PI3Kα; 50 mM HEPES, pH7.5, 100 mM NaCl, 2.0 mM DTT, 3.0 mM MgCl2, 1.0 mM EGTA, 10 μM ATP) and gently mixed. 25 μL of this kinase reaction was then aliquoted into test wells in a Microfluor2 white 96-well plate (Thermo Scientific). As a preincubation step, 1 μl of 30× compound dilutions was added to the appropriate test wells to generate a ten point dose-response ranging from 0.0 μM-10 μM inhibitor. […] Luminescent signal was detected using a SpectraMax M5 (Molecular Devices). Maximal luminescence (no PI3K activity/maximal PI3K inhibition) was determined from reaction buffer plus SC-PI substrate only controls. The minimal signal (maximal PI3K activity) was determined by the 0.0 μM compound (DMSO only) control. IC50 values were calculated via non-linear regression using GraphPad Prism data analysis software.
(§3) Compounds were assayed against the Class I PI3Kα, PI3Kβ, PI3Kγ, PI3Kδ, PI3Kα(H1047R) and PI3Kα(E545K) in the KinaseGLO assay as described in Example 2, and against the Class IV PI3K mTOR in the radiometric assay. IC50 values (μM) were determined using 8-10 point half-log dose dilutions and calculated via nonlinear regression analysis using Graphpad Prism data analysis software.

PI3Kα = target: T2, PI3Kα (Homo sapiens, UniProt P42336); experiment: KinaseGLO luminescent PI3-kinase assay, PI3Kα
T2 construct: purchased Invitrogen or Millipore
Method: as §1, §2
PI3K enzyme sample was thawed and diluted to 100 ng/μL in enzyme dilution buffer (50 mM HEPES, pH7.5, 3.0 mM MgCl2, 1.0 mM EGTA) and stored on ice. PI3Kα enzyme was diluted to a final concentration of 1 ng/μL in reaction buffer (for PI3Kα; 50 mM HEPES, pH7.5, 100 mM NaCl, 2.0 mM DTT, 3.0 mM MgCl2, 1.0 mM EGTA, 10 μM ATP) and gently mixed. 25 μL of this kinase reaction was then aliquoted into test wells in a Microfluor2 white 96-well plate (Thermo Scientific). As a preincubation step, 1 μl of 30× compound dilutions was added to the appropriate test wells to generate a ten point dose-response ranging from 0.0 μM-10 μM inhibitor. The enzyme-inhibitor mixture was then incubated for 30 minutes at 4° C. After this preincubation, […] (50 μM final concentration) was added to each test well to initiate the kinase reaction. Reactions were incubated at room temperature for 2 hours with moderate shaking. The KinaseGLO® luminescent reagent (Promega) was prepared according to the manufacturer's instructions. Both the KinaseGLO® buffer and substrate were allowed to thaw and equilibrate at room temperature for two hours prior to mixing and use. The PI3-kinase reaction was terminated by the addition of 30 μL of reconstituted KinaseGLO® reagent to each reaction well and then incubated in the dark for 10 minutes at room temperature. Luminescent signal was detected using a SpectraMax M5 (Molecular Devices). Maximal luminescence (no PI3K activity/maximal PI3K inhibition) was determined from reaction buffer plus SC-PI substrate only controls. The minimal signal (maximal PI3K activity) was determined by the 0.0 μM compound (DMSO only) control. IC50 values were calculated via non-linear regression using GraphPad Prism data analysis software.
as §3

MELK = target: T3, MELK (Homo sapiens, UniProt Q14680); experiment: MELK kinase assay (KinaseGLO)
T3 construct: purchased Invitrogen or Millipore
Method: as §1
MELK kinase assay: The ability of compounds to inhibit MELK was also determined using the KinaseGLO assay. Briefly, MELK enzymes was thawed and diluted to a final concentration of 2.64 ng/μL in reaction buffer (50 mM HEPES, pH7.5, 100 mM NaCl, 2.0 mM DTT, 3.0 mM MgCl2, 1.0 mM EGTA, 10 μM ATP). 19 μl of this kinase reaction mixture was aliquoted into test wells (50 ng MELK/well) in a Microfluor2 white 96-well plate (Thermo Scientific). As a preincubation step, 1 μl of 30× compound dilutions was added to the appropriate test wells to generate a ten point dose-response ranging from 0.0 μM-10 μM inhibitor, and incubated for 15 minutes at 4° C. The reaction was started by addition of 10 μL of 150 μM ZIPtide peptide substrate resuspended in reaction buffer (50 μM final concentration of ZIPtide). Reactions were incubated at room temperature for 2 hours prior to addition of 30 μL of KinaseGLO reagent and development as described. Maximal luminescence (no MELK activity/maximal MELK inhibition) was determined from reaction buffer plus peptide substrate only controls. The minimal signal (maximal MELK activity) was determined by the 0.0 μM compound (DMSO only) control. IC50 values were calculated via non-linear regression using GraphPad Prism data analysis software. […]
Compounds of the invention were assayed against the select kinases using the KinaseGLO assay (MELK) or the radiometric assay (PIM, TRKC, PDGFRα(D842V), MNK1 and mTOR). IC50 values were determined using 8-10 point half-log dose dilutions and calculated via nonlinear regression analysis using Graphpad Prism data analysis software.

T2 sequence (P42336 whole entry): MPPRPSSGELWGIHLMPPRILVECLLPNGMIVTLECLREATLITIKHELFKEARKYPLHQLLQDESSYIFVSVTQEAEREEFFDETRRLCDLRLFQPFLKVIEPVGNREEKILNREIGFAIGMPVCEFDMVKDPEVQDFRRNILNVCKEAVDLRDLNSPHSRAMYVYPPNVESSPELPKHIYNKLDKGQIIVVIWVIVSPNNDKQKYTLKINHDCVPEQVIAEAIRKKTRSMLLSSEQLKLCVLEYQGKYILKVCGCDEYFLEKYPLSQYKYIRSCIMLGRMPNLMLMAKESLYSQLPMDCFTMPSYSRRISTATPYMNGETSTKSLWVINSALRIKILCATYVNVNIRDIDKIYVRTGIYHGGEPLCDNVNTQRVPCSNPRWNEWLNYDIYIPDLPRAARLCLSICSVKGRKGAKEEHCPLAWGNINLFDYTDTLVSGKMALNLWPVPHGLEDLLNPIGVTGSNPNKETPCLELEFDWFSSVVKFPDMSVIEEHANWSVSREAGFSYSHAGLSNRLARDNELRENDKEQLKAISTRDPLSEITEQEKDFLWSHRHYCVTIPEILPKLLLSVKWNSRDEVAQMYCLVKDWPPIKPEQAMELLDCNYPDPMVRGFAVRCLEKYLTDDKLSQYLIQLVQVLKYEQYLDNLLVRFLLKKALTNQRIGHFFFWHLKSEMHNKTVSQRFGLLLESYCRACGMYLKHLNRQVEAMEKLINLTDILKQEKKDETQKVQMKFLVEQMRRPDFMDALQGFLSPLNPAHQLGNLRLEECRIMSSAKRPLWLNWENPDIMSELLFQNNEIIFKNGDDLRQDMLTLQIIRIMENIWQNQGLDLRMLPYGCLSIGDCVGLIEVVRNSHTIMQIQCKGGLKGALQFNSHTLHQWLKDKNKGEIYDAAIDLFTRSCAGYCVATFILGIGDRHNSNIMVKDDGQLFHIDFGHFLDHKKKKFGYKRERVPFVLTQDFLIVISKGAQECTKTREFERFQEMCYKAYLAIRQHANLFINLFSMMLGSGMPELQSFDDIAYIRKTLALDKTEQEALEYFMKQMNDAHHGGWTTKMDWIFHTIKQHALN
T2 sequence (P27986 whole entry partner): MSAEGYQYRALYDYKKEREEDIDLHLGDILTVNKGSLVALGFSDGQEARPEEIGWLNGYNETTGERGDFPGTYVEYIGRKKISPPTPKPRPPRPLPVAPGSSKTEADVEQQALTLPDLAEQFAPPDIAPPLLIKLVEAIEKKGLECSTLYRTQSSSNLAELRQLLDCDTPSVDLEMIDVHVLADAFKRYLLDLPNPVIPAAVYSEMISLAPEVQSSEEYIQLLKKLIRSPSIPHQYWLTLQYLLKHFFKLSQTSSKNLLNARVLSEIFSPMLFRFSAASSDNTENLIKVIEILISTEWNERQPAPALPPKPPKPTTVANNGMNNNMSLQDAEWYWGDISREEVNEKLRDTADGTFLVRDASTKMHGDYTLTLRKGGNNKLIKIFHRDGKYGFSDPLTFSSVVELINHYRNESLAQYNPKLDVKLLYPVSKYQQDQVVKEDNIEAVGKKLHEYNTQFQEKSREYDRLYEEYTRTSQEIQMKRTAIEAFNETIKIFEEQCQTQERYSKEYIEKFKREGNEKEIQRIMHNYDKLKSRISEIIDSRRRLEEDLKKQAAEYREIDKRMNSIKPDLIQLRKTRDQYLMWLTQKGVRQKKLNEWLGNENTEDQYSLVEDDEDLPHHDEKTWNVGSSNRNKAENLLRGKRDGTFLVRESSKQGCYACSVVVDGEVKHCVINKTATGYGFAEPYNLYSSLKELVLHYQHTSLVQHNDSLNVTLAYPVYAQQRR
T1 sequence (P42338 whole entry): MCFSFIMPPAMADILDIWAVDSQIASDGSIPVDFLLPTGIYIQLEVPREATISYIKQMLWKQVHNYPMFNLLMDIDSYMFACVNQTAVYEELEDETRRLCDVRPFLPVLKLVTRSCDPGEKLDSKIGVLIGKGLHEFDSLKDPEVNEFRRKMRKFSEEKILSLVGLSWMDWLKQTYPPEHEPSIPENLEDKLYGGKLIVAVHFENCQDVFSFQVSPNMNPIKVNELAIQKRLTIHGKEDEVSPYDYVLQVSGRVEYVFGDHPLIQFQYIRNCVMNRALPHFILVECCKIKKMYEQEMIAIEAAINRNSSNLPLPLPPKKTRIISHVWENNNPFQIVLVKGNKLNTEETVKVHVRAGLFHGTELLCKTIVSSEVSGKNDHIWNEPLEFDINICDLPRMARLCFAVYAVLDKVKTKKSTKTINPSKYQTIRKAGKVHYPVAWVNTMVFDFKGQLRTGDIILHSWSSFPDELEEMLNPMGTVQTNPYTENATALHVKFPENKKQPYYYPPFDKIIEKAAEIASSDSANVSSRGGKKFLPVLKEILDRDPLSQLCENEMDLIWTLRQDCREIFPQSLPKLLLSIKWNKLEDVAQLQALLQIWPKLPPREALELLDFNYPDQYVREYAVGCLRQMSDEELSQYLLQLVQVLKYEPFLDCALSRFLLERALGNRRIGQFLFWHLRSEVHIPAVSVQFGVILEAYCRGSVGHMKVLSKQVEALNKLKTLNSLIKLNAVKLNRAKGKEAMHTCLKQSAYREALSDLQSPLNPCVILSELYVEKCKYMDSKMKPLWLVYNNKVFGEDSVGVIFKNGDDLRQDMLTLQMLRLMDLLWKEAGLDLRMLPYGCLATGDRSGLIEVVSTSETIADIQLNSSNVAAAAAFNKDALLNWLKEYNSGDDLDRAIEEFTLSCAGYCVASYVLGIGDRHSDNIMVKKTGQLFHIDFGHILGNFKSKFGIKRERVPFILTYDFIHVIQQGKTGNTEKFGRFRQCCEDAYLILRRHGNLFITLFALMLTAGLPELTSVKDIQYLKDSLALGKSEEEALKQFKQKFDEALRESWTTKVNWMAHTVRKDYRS
T1 sequence (P27986 whole entry partner): as the sequence (P27986 whole entry partner) above
T3 sequence (Q14680 whole entry): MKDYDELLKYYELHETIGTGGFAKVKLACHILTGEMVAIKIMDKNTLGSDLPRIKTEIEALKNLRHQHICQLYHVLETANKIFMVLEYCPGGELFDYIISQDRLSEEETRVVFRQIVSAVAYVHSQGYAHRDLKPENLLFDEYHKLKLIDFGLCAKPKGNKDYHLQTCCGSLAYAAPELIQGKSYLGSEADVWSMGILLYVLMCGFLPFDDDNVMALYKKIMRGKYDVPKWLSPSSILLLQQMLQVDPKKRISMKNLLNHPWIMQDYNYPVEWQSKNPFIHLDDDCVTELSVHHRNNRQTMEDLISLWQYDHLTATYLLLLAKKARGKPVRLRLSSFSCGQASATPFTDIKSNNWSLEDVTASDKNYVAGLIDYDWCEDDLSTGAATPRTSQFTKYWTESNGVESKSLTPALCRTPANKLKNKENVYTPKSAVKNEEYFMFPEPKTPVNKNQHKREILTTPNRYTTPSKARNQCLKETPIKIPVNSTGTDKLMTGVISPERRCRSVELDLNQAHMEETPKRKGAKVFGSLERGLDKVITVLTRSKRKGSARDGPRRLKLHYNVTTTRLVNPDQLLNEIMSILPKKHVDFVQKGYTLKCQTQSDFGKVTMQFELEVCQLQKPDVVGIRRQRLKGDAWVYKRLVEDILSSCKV

IC50 (PI3Kβ) | IC50 (PI3Kα) | IC50 (MELK) | Structure (SMILES)
> 50 nM | > 20 nM | > 30 nM | CC(C)(C#N)c1ccc(-c2n[nH]c3cnc4ccc(-c5cnc6ccccc6c5)cc4c23)cc1 [Compound 1078, 2-methyl-2-(4-(8-(quinolin-3-yl)-3H-pyrazolo[3,4-c]quinolin-1-yl)phenyl)propanenitrile]
35 to 50 nM | < 10 nM | < 12 nM | CC(C)(C#N)c1ccc(-c2n[nH]c3cnc4ccc(-c5cccnc5)cc4c23)cc1 [Compound 1107, 2-methyl-2-(4-(8-(pyridin-3-yl)-3H-pyrazolo[3,4-c]quinolin-1-yl)phenyl)propanenitrile]
> 50 nM | < 10 nM | > 30 nM | CC(C)(C#N)c1ccc(-c2n[nH]c3cnc4ccc(-c5ccc6ncccc6c5)cc4c23)cc1 [Compound 1110, 2-methyl-2-(4-(8-(quinolin-6-yl)-3H-pyrazolo[3,4-c]quinolin-1-yl)phenyl)propanenitrile]
